# Results as given in patent US5281604A, “Angiotensin II receptor blocking 2,3,6-substituted quinazolinones” (American Cyanamid Company, priority 1993, dated 1994).
# Target: T1, Angiotensin II Receptor (Bos taurus, UniProt P25104)
# T1 construct: beef adrenal glands are processed as follows: fresh adrenal glands received on crushed ice are cleaned of fatty tissues; tissue Maxwell-Cohen (local slaughter house); host or cells: beef adrenal cortex, microsomal membranes (100,000×g pellet)
# T1 sequence (P25104 1-359): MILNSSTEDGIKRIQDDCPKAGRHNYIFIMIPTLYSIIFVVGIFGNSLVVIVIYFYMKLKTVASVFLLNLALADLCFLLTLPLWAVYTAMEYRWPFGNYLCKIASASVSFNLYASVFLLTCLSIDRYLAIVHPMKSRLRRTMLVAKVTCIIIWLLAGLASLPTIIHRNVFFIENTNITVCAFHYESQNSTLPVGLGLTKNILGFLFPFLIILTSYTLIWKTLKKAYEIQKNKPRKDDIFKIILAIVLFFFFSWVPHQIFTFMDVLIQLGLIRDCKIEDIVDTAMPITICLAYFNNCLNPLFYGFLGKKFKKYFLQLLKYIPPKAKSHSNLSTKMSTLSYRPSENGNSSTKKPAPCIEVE
# Assay: Receptor Binding Assay: displacement of [125I](Sar1,Ile8)AngII from beef adrenal cortex microsomal membranes
# Conditions: 60 min room temperature
# Description: Beef adrenals are obtained from a local slaughter house (Maxwell-Cohen).
# [^125 I](Sar^1,Ile^8)AngII, S.A. 2200 Ci/mmole, is purchased from Dupont (NEN®, Boston, Mass.). All unlabeled AngII analogs, Dimethylsulfoxide (DMSO), nucleotides, bovine serum albumin (BSA) are purchased from Sigma Chemical Co., St. Louis, Mo. U.S.A.
# Approximately sixteen (16) to twenty (20) beef adrenal glands are processed as follows: fresh adrenal glands received on crushed ice are cleaned of fatty tissues and the tough membranes encapsulating the glands are removed and discarded. The brownish tissue forming the adrenal cortex is scraped off and finely minced with scissors before homogenization. Care is taken to avoid contamination with medullary tissue during dissection. The scraped cortices are suspended in twenty volumes of an ice-cold buffer medium consisting of 10 mM Tris.HCl (pH 7.4 at 22° C.) and containing 1.0 mM EDTA and 0.2M sucrose. Unless otherwise indicated, all subsequent operations are done at 4° C. […] The homogenate is centrifuged first at low speed (3,000×g) for 10 min. The resulting pellet is discarded and the supernatant fluid recentrifuged at 10,000×g for 15 minutes to give a P2 pellet. This P2 pellet is discarded and the liquid phase is carefully decanted off in clean centrifuge tubes and recentrifuged at high speed (100,000×g) for 60 min. The translucent final pellet is harvested and combined in a small volume (20-50.0 ml) of 50.0 mM Tris.HCl buffer, pH 7.2. A 100 ul aliquot is withdrawn and the protein content of the preparation is determined by the Lowry's method (Lowry, O. H., Rosebrough, N. F., Farr, A. L. and Randall, R. J., Protein measurement with Folin phenol reagent. J. Biol. Chem., […], 265-275, 1951). The pelleted membrane is reconstituted in 50.0 mM Tris.HCl buffer containing 0.1 mM of phenylmethylsulfonyl fluoride (PMSF) to give approximately a protein concentration of 2.5 mg per ml of tissue suspension. The membrane preparation is finally aliquoted in 1.0 ml volumes and stored at -70° C. until use in the binding assays.
# The binding of [^125 I](Sar^1.Ile^8)AngII to microsomal membranes is initiated by the addition of reconstituted membranes (1:10 vols.) in freshly made 50.0 mM Tris.HCl buffer, pH 7.4 containing 0.25% heat inactivated bovine serum albumin (BSA): 80 ul membrane protein (10 to 20 ug/assay) to wells already containing 100 ul of incubation buffer (as described above) and 20 ul [^125 I](Sar^1,Ile^8)AmgII (Specific Activity, 2200 Ci/mmole) Non-specific binding is measured in the presence of 1.0 uM unlabeled (Sar^1,Ile^8)AngII, added in 20 ul volume. Specific binding for [^125 I](Sar^1,Ile^8) AngII is greater than 90%. In competition studies, experimental compounds are diluted in dimethylsulfoxide (DMSO) and added in 20 ul to wells before the introduction of tissue membranes. This concentration of DMSO is found to have no negative effects on the binding of [^ 125I] (Sar^1,Ile^8) AngII to the membranes. Assays are performed in triplicate. The wells are left undisturbed for 60 min. at room temperature. […] Presoaking the filter sheet in 0.1% polyethyleneimine in normal saline (PEI/Saline) greatly reduces the radioactivity retained by the filter blanks. […] The filters are removed from the filter grid and counted in a Parkard® Cobra Gamma Counder for 1 min. […] The binding data are analyzed by the non-linear interactive "LUNDON-1" program (LUNDON SOFTWARE Inc., Cleveland, Ohio U.S.A.).
row,SMILES,IC50 [nM]
1,"CCCCc1nc2ccc([C@H]3OC[C@H]4[C@@H]3ON3[C@@H]4CCC3(C)C)cc2c(=O)n1Cc1ccc(-c2ccccc2-c2nnn[nH]2)cc1 (relative stereo) [Example 7, (1α, 3aα, 8aβ, 8bα)-2-Butyl-6-(octahydro-6,6-dimethylfuro[3,4-d]pyrrolo[1,2-b]isoxazol-1-yl)-3-[[2'-(1H-tetrazol-5-yl)[1,1'-biphenyl]-4-yl]methyl]-4 (3H)-quinazolinone]",50
2,"CCCCc1nc2ccc(C3CC4C(O3)ON(c3ccccc3)C4c3ccccc3)cc2c(=O)n1Cc1ccc(-c2ccccc2-c2nnn[nH]2)cc1 (stereo not drawn) [Example 10, (3α, 3aβ, 5β, 6aβ)-2-Butyl-6-(hexahydro-2,3-diphenylfuro[3,2-d]isoxazol-5-yl)-3-[[2'-(1H-tetrazol-5-yl)[1,1'-biphenyl]-4-yl]methyl]-4(3H)-quinazolinone]",76
3,CCCCc1nc2ccc(C3CC4C(c5ccc(C)cc5)=NOC4O3)cc2c(=O)n1Cc1ccc(-c2ccccc2-c2nnn[nH]2)cc1 (stereo not shown) [Example 12],100
4,CCCCc1nc2ccc(C3CC4C(O3)ON3C4CCC3(C)C)cc2c(=O)n1Cc1ccc(-c2ccccc2-c2nnn[nH]2)cc1 (stereo not shown) [Example 14],31.9
